According to patent US4119667A, “Haloaniline derivatives as plant growth modifiers” (Rohm and Haas Company, priority 1974, dated 1978):
Read-outs that look alike come from different tables or passages of the source.

Legend:
soybean (Var. Clark) [1] = assay: greenhouse growth regulator test on soybean (Table I); type: in vivo; conditions: two weeks after application; for Injury (0-10): 0-10 scale, 0 = no effect, 10 = complete kill; for pest or weed control / pest or weed control at 2241.7 g/ha: Glycine max, foliar, 336 h, relative to control, read-out: Height (% inhib.)
Description: Limited greenhouse experiments shown that there is promotion of lateral bud growth when compounds are applied at higher concentrations and earlier timings and an increase in soybean pod numbers at lower rates applied just prior to or at the flowering stage. […] Three parameters are reported in Table I to indicate the general spectrum of activity for each evaluated compound including the propensity for releasing lateral bud growth in soybeans. These are: (a) plant height measured as percent inhibition relative to the control; (b) the number of lateral buds per plant; and (c) phytotoxic injury on a scale of 0 to 10 (10 being maximum injury). Sampling compounds were evaluated in the greenhouse in a special growth regulator test. Four to five soybean seeds (Var. Clark) were planted in 4-inch pots with a humus-soil mixture. Two weeks after planting, two uniform plants were selected from each pot for treatment. The candidate compounds were dissolved in acetone-water (1:1), and applied as a foliar spray in a carrier volume of 50 gallons per acre, using a moving belt sprayer at a rate of 1/4, 1/2 and 2 lbs/acre. Six plants were used for each treatment. Two weeks after application, the number of laterals per plant, plant injury (0-10 scale; 0 = no effect, 10 = complete kill,) and the height of each plant were recorded. Untreated plants were used as controls.

soybean (Var. Clark) [2] = assay: effect of haloaniline derivatives on soybean yields at different rates and stages of growth (Table VIII); type: in vivo
Method: a further experiment was conducted to determine the effect of selected haloaniline derivatives on soybean yields at different rates of application, and at differing stages of growth.
Soybeans (Var. Clark) were planted at the rate of 4 seeds per 6 inch pot in a medium of 1 part humus and 2 parts soil. Two weeks after planting two uniform plants were selected from each pot for treatment. The soybeans were treated weekly with a high analysis liquid fertilizer. The candidate compounds were dissolved in acetone-water (1:1) and applied at three timings as a foliar spray in a carrier volume of 50 gallons per acre using a moving belt sprayer at rates ranging from 0.1 to two lbs. per acre. Six plants were used for each treatment. The beans were harvested eight weeks after the third treatment and the seeds and pods per plant were counted.

SMILES | No. Laterals per plant (soybean (Var. Clark) [1]; 1/2 lbs/acre foliar spray) | Injury (0-10) (soybean (Var. Clark) [1]; 1/2 lbs/acre) | No. Laterals per plant (soybean (Var. Clark) [1]; 1/4 lbs/acre foliar spray) | Injury (0-10) (soybean (Var. Clark) [1]; 1/4 lbs/acre) | No. Laterals per plant (soybean (Var. Clark) [1]; 2 lbs/acre foliar spray) | Injury (0-10) (soybean (Var. Clark) [1]; 2 lbs/acre) | pest or weed control (soybean (Var. Clark) [1]; 1/2 lbs/acre foliar spray) | pest or weed control (soybean (Var. Clark) [1]; 1/4 lbs/acre foliar spray) | pest or weed control at 2241.7 g/ha (soybean (Var. Clark) [1]; 2 lbs/acre foliar spray) | Pods per Plant (soybean (Var. Clark) [2]; 2nd treatment, 0.10 lbs./A) | Seeds per Plant (soybean (Var. Clark) [2]; 2nd treatment, 0.10 lbs./A) | Seeds per Pod (soybean (Var. Clark) [2]; 2nd treatment, 0.10 lbs./A) | Pods per Plant (soybean (Var. Clark) [2]; 2nd treatment, 0.30 lbs./A) | Seeds per Plant (soybean (Var. Clark) [2]; 2nd treatment, 0.30 lbs./A) | Seeds per Pod (soybean (Var. Clark) [2]; 2nd treatment, 0.30 lbs./A) | Pods per Plant (soybean (Var. Clark) [2]; 2nd treatment, 0.90 lbs./A) | Seeds per Plant (soybean (Var. Clark) [2]; 2nd treatment, 0.90 lbs./A) | Seeds per Pod (soybean (Var. Clark) [2]; 2nd treatment, 0.90 lbs./A) | Pods per Plant (soybean (Var. Clark) [2]; 3rd treatment, 0.10 lbs./A) | Seeds per Plant (soybean (Var. Clark) [2]; 3rd treatment, 0.10 lbs./A) | also measured
Clc1cc(Cl)cc(NCNc2cc(Cl)cc(Cl)c2)c1 [I, N,N'-Bis[3,5-dichlorophenyl]methanediamine] | 3 | 0 | 1 | 0 | 5 | 1 | 4% | 5% | 17% | 24.5 | 42.7 | 1.7 | 14.5 | 9.3 | 0.6 | 9.0 | 4.3 | 0.5 | 7.0 | 12.8 | Seeds per Pod (soybean (Var. Clark) [2]; 3rd treatment, 0.10 lbs./A): 1.8; Pods per Plant (soybean (Var. Clark) [2]; 3rd treatment, 0.30 lbs./A): 8.3; Seeds per Plant (soybean (Var. Clark) [2]; 3rd treatment, 0.30 lbs./A): 13.3; Seeds per Pod (soybean (Var. Clark) [2]; 3rd treatment, 0.30 lbs./A): 1.6; Pods per Plant (soybean (Var. Clark) [2]; 3rd treatment, 0.90 lbs./A): 7.2; Seeds per Plant (soybean (Var. Clark) [2]; 3rd treatment, 0.90 lbs./A): 13.3; Seeds per Pod (soybean (Var. Clark) [2]; 3rd treatment, 0.90 lbs./A): 1.5
Clc1cc(Cl)cc(N=Cc2ccccc2)c1 [IV, 3,5-dichloro-N-benzylideneaniline] | 2 | 0 | 3 | 0 | 5 | 1 | 5% | 7% | 17% | 8.3 | 8.3 | 1.0 | 0.7 | 1.0 | 1.5 | 2.7 | 3.2 | 1.2 | 16.5 | 37.0 | Seeds per Pod (soybean (Var. Clark) [2]; 3rd treatment, 0.10 lbs./A): 2.2; Pods per Plant (soybean (Var. Clark) [2]; 3rd treatment, 0.30 lbs./A): 13.2; Seeds per Plant (soybean (Var. Clark) [2]; 3rd treatment, 0.30 lbs./A): 23.3; Seeds per Pod (soybean (Var. Clark) [2]; 3rd treatment, 0.30 lbs./A): 1.7; Pods per Plant (soybean (Var. Clark) [2]; 3rd treatment, 0.90 lbs./A): 19.3; Seeds per Plant (soybean (Var. Clark) [2]; 3rd treatment, 0.90 lbs./A): 37.7; Seeds per Pod (soybean (Var. Clark) [2]; 3rd treatment, 0.90 lbs./A): 1.9
Clc1ccc(N=Cc2ccccc2)cc1Cl [XIII, 3,4-Dichloro-N-benzylideneaniline] | 4 | 0 | 2 | 1 | 3 | 4 | 9% | 17% | 19% | 13.7 | 20.5 | 1.5 | 12.0 | 17.7 | 1.5 | 5.2 | 6.7 | 1.3 | 5.5 | 7.8 | Seeds per Pod (soybean (Var. Clark) [2]; 3rd treatment, 0.10 lbs./A): 1.4; Pods per Plant (soybean (Var. Clark) [2]; 3rd treatment, 0.30 lbs./A): 11.0; Seeds per Plant (soybean (Var. Clark) [2]; 3rd treatment, 0.30 lbs./A): 17.2; Seeds per Pod (soybean (Var. Clark) [2]; 3rd treatment, 0.30 lbs./A): 1.6; Pods per Plant (soybean (Var. Clark) [2]; 3rd treatment, 0.90 lbs./A): 9.3; Seeds per Plant (soybean (Var. Clark) [2]; 3rd treatment, 0.90 lbs./A): 16.7; Seeds per Pod (soybean (Var. Clark) [2]; 3rd treatment, 0.90 lbs./A): 1.8
O=CNc1cc(Cl)cc(Cl)c1 [XVIII, 3',5'-dichloroformanilide] | 5 | 1 | 4 | 0 | 5 | 1 | 11% | 3% | 15% | 16.2 | 17.5 | 1.1 | 9.2 | 6.3 | 0.7 | 0.5 | 0.5 | 1.0 | 9.3 | 15.2 | Pods per Plant (soybean (Var. Clark) [2]; 1st treatment, 0.25 lbs./A): 1.4; Seeds per Plant (soybean (Var. Clark) [2]; 1st treatment, 0.25 lbs./A): 0.0; Seeds per Pod (soybean (Var. Clark) [2]; 1st treatment, 0.25 lbs./A): 0.0; Pods per Plant (soybean (Var. Clark) [2]; 1st treatment, 0.50 lbs./A): 0.8; Seeds per Plant (soybean (Var. Clark) [2]; 1st treatment, 0.50 lbs./A): 1.0; Seeds per Pod (soybean (Var. Clark) [2]; 1st treatment, 0.50 lbs./A): 1.3; Pods per Plant (soybean (Var. Clark) [2]; 1st treatment, 1.00 lbs./A): 0.0; Seeds per Plant (soybean (Var. Clark) [2]; 1st treatment, 1.00 lbs./A): 0.0; Seeds per Pod (soybean (Var. Clark) [2]; 1st treatment, 1.00 lbs./A): 0.0; Pods per Plant (soybean (Var. Clark) [2]; 1st treatment, 2.00 lbs./A): 0.0; Seeds per Plant (soybean (Var. Clark) [2]; 1st treatment, 2.00 lbs./A): 0.0; Seeds per Pod (soybean (Var. Clark) [2]; 1st treatment, 2.00 lbs./A): 0.0; Seeds per Pod (soybean (Var. Clark) [2]; 3rd treatment, 0.10 lbs./A): 1.6; Pods per Plant (soybean (Var. Clark) [2]; 3rd treatment, 0.30 lbs./A): 5.2; Seeds per Plant (soybean (Var. Clark) [2]; 3rd treatment, 0.30 lbs./A): 10.5; Seeds per Pod (soybean (Var. Clark) [2]; 3rd treatment, 0.30 lbs./A): 2.0; Pods per Plant (soybean (Var. Clark) [2]; 3rd treatment, 0.90 lbs./A): 5.2; Seeds per Plant (soybean (Var. Clark) [2]; 3rd treatment, 0.90 lbs./A): 9.5; Seeds per Pod (soybean (Var. Clark) [2]; 3rd treatment, 0.90 lbs./A): 1.8
